Paper PMC6211316, “Synthesis and biological evaluation of 3-arylcoumarin derivatives as potential anti-diabetic agents” (Journal of Enzyme Inhibition and Medicinal Chemistry, 2018)
Read-outs that look alike come from different tables or passages of the source.

Key:
[1] = DPPH free radical scavenging; conditions: mean ± SD (n = 3)
Experimental: The effect of target compounds and vitamin C to scavenge the DPPH free radical was evaluated with the method described by Villano et al.[43] with slight modifications.
Two millilitres of different concentrations of the sample solution was added to 2.0 ml of DPPH solution (0.04 mg/mL), shaken and allowed to react at room temperature for 30 min. The absorbance value was measured at 517 nm with an ultraviolet-visible spectrophotometer. The blank reference cuvette contained absolute ethanol. All measurements were performed in triplicate. IC50 values were calculated. The percentage of DPPH radical scavenging rate of the target compound is calculated as follows: DPPH free radical scavenging effect (%)=[A0−(A1−A2)]/A0×100% where A0 is the absorbance of 2.0 ml DPPH solution +2.0 ml absolute ethanol; A1 is the absorbance of 2.0 ml DPPH solution +2.0 ml 3-arylcoumarins solution or standard; A2 is the absorbance of 2.0 ml 3-arylcoumarins solution or standard +2.0 ml absolute ethanol.

[2] = hydroxyl radical scavenging; conditions: mean ± SD (n = 3), read-out: OH IC50 Value
Experimental: The ability of the target compounds and vitamin C to scavenge the hydroxyl radical was evaluated with method described by Ismaili et al.[29] with slight modifications. In test tube, 1.0 ml H2O2 solution (0.03%), 1.0 ml FeSO4 solution (2 mmol.L^−1), 1.0 ml salicylic acid solution (10 mmol.L^−1) and 1.0 ml of 3-arylcoumarins and standard water solution with different concentration (0.4–2.0 mg/mL) were mixed. Finally, 1.0 ml H2O2 solution (0.03%) was added to this mixture to start the reaction. Solutions were kept at 37 °C. After 30 min, the absorbance was measured at 510 nm against the reagent blank, where the distilled water was substituted for the H2O2 solution. The percentage of OH scavenging by target compounds and vitamin C was calculated the following equation: OH scavenging effect (%)=[A0−(A1−A2)]/A0×100% where A0 is the absorbance of 1.0 ml distilled water +1.0 ml H2O2 + 1.0 ml FeSO4 + 1.0 ml salicylic acid +1.0 ml H2O2; A1 is the absorbance of 1.0 ml 3-arylcoumarins or standard +1.0 ml H2O2 + 1.0 ml FeSO4 + 1.0 ml salicylic acid +1.0 ml H2O2; A2 is the absorbance of 1.0 ml 3-arylcoumarins or standard +1.0 ml H2O2 + 1.0 ml FeSO4 + 1.0 ml absolute absolute ethanol +1.0 ml H2O2.

α-Glucosidase = target: T1, α-Glucosidase (Saccharomyces cerevisiae, UniProt P53341); experiment: biochemical; format: biochemical; conditions: for α-glucosidase inhibitory activity (in words): in vitro
T1 construct: purchased Sigma Aldrich G0660-750UN
T1 sequence (P53341 whole entry): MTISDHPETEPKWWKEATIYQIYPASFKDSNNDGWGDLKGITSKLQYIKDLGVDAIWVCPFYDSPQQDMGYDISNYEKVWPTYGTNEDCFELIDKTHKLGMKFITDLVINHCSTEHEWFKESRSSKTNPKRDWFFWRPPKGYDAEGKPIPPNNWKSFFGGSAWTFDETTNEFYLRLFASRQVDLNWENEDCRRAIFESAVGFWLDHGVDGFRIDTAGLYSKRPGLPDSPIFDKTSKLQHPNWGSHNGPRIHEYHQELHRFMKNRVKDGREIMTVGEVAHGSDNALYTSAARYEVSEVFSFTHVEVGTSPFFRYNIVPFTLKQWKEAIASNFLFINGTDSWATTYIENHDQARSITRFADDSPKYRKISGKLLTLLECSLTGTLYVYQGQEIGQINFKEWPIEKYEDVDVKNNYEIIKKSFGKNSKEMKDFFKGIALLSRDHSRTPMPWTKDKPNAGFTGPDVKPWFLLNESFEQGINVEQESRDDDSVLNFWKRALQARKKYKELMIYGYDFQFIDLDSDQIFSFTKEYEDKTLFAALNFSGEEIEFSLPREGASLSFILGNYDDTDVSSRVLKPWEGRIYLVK
Experimental: α-Glucosidase (G0660-750UN, Sigma Aldrich) and 4-Nitrophenyl α-D-glucopyranoside (PNPG, Macklin) were dissolved in phosphate buffer (pH 6.8, 100 mM), and the test compounds were dissolved in DMSO solution. The experiment was divided into blank group, control group, sample blank group, and sample group. The reagents were loaded in 96-well plates at the dose of the table (Table 8). The solution was bathed in 37 °C water for 10 min, and then enzyme solution was added. After reaction at 37 °C for 20 min, 70 μL Na2CO3 solution ([…]) was added to stop the reaction. All experiments were run in triplicate. […] Since PNPG can produce glucose and p-Nitrophenol (PNP) under the action of α-glucosidase, PNP has the greatest absorption at 405 nm. The absorbance was determined by the microplate reader, and the inhibition rate of α-glucosidase and the IC50 value of each sample were calculated according to the formula. Inhibition rate %={[(AC−AB)−(AS−ASB)]/(AC−AB)}×100% where AC is the absorbance of control group; AB is the absorbance of blank group; AS is the absorbance of sample group; ASB is the absorbance of sample blank group.

AGEs formation = experiment: In vitro inhibitory activity of AGEs formation (bovine serum albumin/glucose); format: biochemical; conditions: mean ± SD (n = 3)
Experimental: To prepare the AGEs reaction solution, 10 mg/mL of bovine serum albumin in 50 mM PBS (pH 7.4) was added to 0.2 M glucose, and 0.02% sodium azide was added to prevent bacterial growth. The reaction mixture (3.0 ml) was then mixed with various concentrations (0.5–1000 μg/mL) of the target compounds (1.0 ml) dissolved in DMSO. After incubating at 37 °C for 14 d, the fluorescence intensity of AGE was determined by a fluorospectrophotometer (PE, USA) with excitation and emission wavelengths at 350 nm and 420 nm, respectively. All experiments were run in triplicate. Aminoguanidine hydrochloride was used as a reference compound. The inhibition rate of AGEs formation and the IC50 value of each sample were calculated according to the formula. Inhibition rate %={[(AC−AB)−(AS−ASB)]/(AC−AB)}×100% where AC is the absorbance of control group(1.0 ml glucose +1.0 ml bovine serum albumin +1.0 ml sodium azide +1.0 ml DMSO); AB is the absorbance of blank group(1.0 ml PBS +1.0 ml bovine serum albumin +1.0 ml sodium azide +1.0 ml DMSO); AS is the absorbance of sample group (1.0 ml glucose +1.0 ml bovine serum albumin +1.0 ml sodium azide +1.0 ml target compound solution or Aminoguanidine hydrochloride solution); ASB is the absorbance of sample blank group (1.0 ml PBS +1.0 ml bovine serum albumin +1.0 ml sodium azide +1.0 ml target compound solution or Aminoguanidine hydrochloride solution).

Cc1ccc(-c2cc3cccc(O)c3oc2=O)cc1 [Compound 8, 8-Hydroxy-3-(4-methylphenyl)-coumarin]
IC50 [1]: > 1000 µM | IC50 [2]: > 1000 µM | IC50 (α-Glucosidase): 69.6 ± 5.32 µM | IC50 (AGEs formation): 31.9 ± 2.02 µM | melting point: 211.7 to 212.5 °C

COc1ccc(-c2cc3ccc(O)c(O)c3oc2=O)cc1OC [Compound 43, 7,8-Dihydroxy-3-(3,4-dimethoxyphenyl)-coumarin]
IC50 [1]: 4.24 ± 0.06 µM | IC50 [2]: 887 ± 15.8 µM | IC50 (α-Glucosidase): > 1000 µM | IC50 (AGEs formation): 25.2 ± 1.72 µM | melting point: 290.5 to 291.9 °C

O=c1oc2ccccc2cc1-c1ccc(F)cc1 [Compound 7, 3-(4-Fluorophenyl)-coumarin]
IC50 [1]: > 1000 µM | IC50 [2]: > 1000 µM | IC50 (α-Glucosidase): > 1000 µM | IC50 (AGEs formation): > 1000 µM | melting point: 196.7 to 197.7 °C

CCN(CC)c1ccc2cc(-c3ccc(O)cc3)c(=O)oc2c1 [Compound 41, 7-Diethylamino-3-(4-hydroxyphenyl)-coumarin]
IC50 [1]: > 1000 µM | IC50 [2]: > 1000 µM | IC50 (α-Glucosidase): 13.4 ± 0.65 µM | IC50 (AGEs formation): > 1000 µM | melting point: 190.2 to 191.8 °C

COc1ccc(-c2cc3cccc(O)c3oc2=O)cc1OC [Compound 38, 8-Hydroxy-3-(3,4-dimethoxyphenyl)-coumarin]
IC50 [1]: 16.3 ± 0.44 µM | IC50 [2]: > 1000 µM | IC50 (α-Glucosidase): 20.2 ± 0.44 µM | IC50 (AGEs formation): 22.3 ± 1.34 µM | melting point: 162.8 to 163.8 °C

COc1ccc(-c2cc3cc(O)ccc3oc2=O)cc1OC [Compound 39, 6-Hydroxy-3-(3,4-dimethoxyphenyl)-coumarin]
IC50 [1]: > 1000 µM | IC50 [2]: > 1000 µM | IC50 (α-Glucosidase): 13.1 ± 0.57 µM | α-glucosidase inhibitory activity (in words) (α-Glucosidase): moderate to excellent inhibitory activity | IC50 (AGEs formation): 8.02 ± 0.2 µM | melting point: 216.1 to 217.9 °C

COc1ccc(-c2cc3ccc(O)c(O)c3oc2=O)cc1 [Compound 34, 7,8-Dihydroxy-3-(4-methoxyphenyl)-coumarin]
IC50 [1]: 3.66 ± 0.03 µM | IC50 [2]: > 1000 µM | IC50 (α-Glucosidase): 18.8 ± 1.02 µM | IC50 (AGEs formation): > 1000 µM | melting point: 234.4 to 235.4 °C

Cc1ccc(C)c(-c2cc3ccc(O)cc3oc2=O)c1 [Compound 20, 7-Hydroxy-3-(2,5-dimethylphenyl)-coumarin]
IC50 [1]: > 1000 µM | IC50 [2]: > 1000 µM | IC50 (α-Glucosidase): > 1000 µM | IC50 (AGEs formation): > 1000 µM | melting point: 189.1 to 190.6 °C

O=c1oc2c(O)c(O)ccc2cc1-c1ccc(F)cc1 [Compound 32, 7,8-Dihydroxy-3-(4-fluorophenyl)-coumarin]
IC50 [1]: 2.06 ± 0.07 µM | IC50 [2]: 970 ± 70.9 µM | IC50 (α-Glucosidase): > 1000 µM | IC50 (AGEs formation): 33.5 ± 1.99 µM | melting point: 259.8 to 260.7 °C

O=c1oc2cc(O)ccc2cc1-c1ccc(O)c(O)c1 [Compound 29, 7-Hydroxy-3-(3,4-dihydroxyphenyl)-coumarin]
IC50 [1]: 11.85 ± 0.04 µM | IC50 [2]: 982 ± 30 µM | IC50 (α-Glucosidase): 29.9 ± 5.15 µM | IC50 (AGEs formation): 7.48 ± 0.59 µM | melting point: 306 to 307.8 °C

O=c1oc2c(O)cccc2cc1-c1ccc(F)cc1 [Compound 19, 8-Hydroxy-3-(4-fluorophenyl)-coumarin]
IC50 [1]: 39.1 ± 3.83 µM | IC50 [2]: > 1000 µM | IC50 (α-Glucosidase): > 1000 µM | IC50 (AGEs formation): 34.7 ± 1.84 µM | melting point: 201.3 to 203.1 °C

O=c1oc2c(O)c(O)ccc2cc1-c1ccc(O)cc1 [Compound 30, 7,8-Dihydroxy-3-(4-hydroxyphenyl)-coumarin]
IC50 [1]: 2.18 ± 0.04 µM | IC50 [2]: 697 ± 19.6 µM | IC50 (α-Glucosidase; mean ± SD (n = 3), read-out: α-Glucosidase inhibitory activity IC50 Value): 19 ± 1.11 µM | IC50 (AGEs formation): > 1000 µM | melting point: 287.5 to 288.9 °C

Cc1ccc(C)c(-c2cc3cccc(O)c3oc2=O)c1 [Compound 21, 8-Hydroxy-3-(2,5-dimethylphenyl)-coumarin]
IC50 [1]: > 1000 µM | IC50 [2]: > 1000 µM | IC50 (α-Glucosidase): > 1000 µM | IC50 (AGEs formation): 213 ± 4.77 µM | melting point: 183.2 to 187.4 °C

COc1ccc2oc(=O)c(-c3ccc(O)cc3)cc2c1 [Compound 27, 6-Methoxy-3-(4-hydroxyphenyl)-coumarin]
IC50 [1]: 42 ± 0.97 µM | IC50 [2]: > 1000 µM | IC50 (α-Glucosidase): 70.3 ± 2.95 µM | IC50 (AGEs formation): 64.5 ± 0.78 µM | melting point: 195.6 to 197.2 °C

COc1ccc2cc(-c3ccc(O)cc3)c(=O)oc2c1 [Compound 26, 7-Methoxy-3-(4-hydroxyphenyl)-coumarin]
IC50 [1]: 68.7 ± 13.4 µM | IC50 [2]: > 1000 µM | IC50 (α-Glucosidase): > 1000 µM | IC50 (AGEs formation): 65.9 ± 1.34 µM | melting point: 209 to 209.8 °C

Cc1ccc(-c2cc3ccc(O)c(O)c3oc2=O)cc1 [Compound 23, 7,8-Dihydroxy-3-(4-methylphenyl)-coumarin]
IC50 [1]: 3.21 ± 0.04 µM | IC50 [2]: 801 ± 41.8 µM | IC50 (α-Glucosidase): 25.5 ± 0.52 µM | IC50 (AGEs formation): 75.9 ± 10.7 µM | melting point: 226.8 to 227.5 °C

COc1ccc(-c2cc3c(O)cc(O)cc3oc2=O)cc1OC [Compound 42, 5,7-Dihydroxy-3-(3,4-dimethoxyphenyl)-coumarin]
IC50 [1]: 5.89 ± 0.06 µM | IC50 [2]: > 1000 µM | IC50 (α-Glucosidase): 39.1 ± 0.76 µM | IC50 (AGEs formation): 18.3 ± 0.38 µM | melting point: 322 to 324.1 °C

O=c1oc2cc(O)ccc2cc1-c1ccccc1O [Compound 16, 7-Hydroxy-3-(2-hydroxyphenyl)-coumarin]
IC50 [1]: > 1000 µM | IC50 [2]: > 1000 µM | IC50 (α-Glucosidase): 10.2 ± 0.75 µM | α-glucosidase inhibitory activity (in words) (α-Glucosidase): moderate to excellent inhibitory activity | IC50 (AGEs formation): 20.47 ± 0.2 µM | melting point: 200.3 to 202.3 °C
